Earlier results on 2 substances are cited in patent US20200188436A1, “Compositions and Methods for Cancer Immunotherapy” (The UAB Research Foundation, priority 2016, published 2020).

The test system of data set [1] is recurrent multifocal GBM. The settings on record: two pediatric patients, refractory to standard therapies, single agent.
Data set [2] has as its system diffuse large B-cell lymphoma (DLBCL). The settings on record: phase II, DLBCL after autologous stem cell transplantation; preliminary results.

In the case of “nivolumab: immune checkpoint inhibitor, anti-PD1 antibody”, the clinical response entry in data set [1] is “remarkable and durable responses”.
In the case of “CT-011: humanized IgG1 monoclonal antibody against PD-1”, in data set [2], the subjects alive is given as 82% and the “subjects progression-free at the end of the follow-up period” value is recorded as 70%.
